Assay results: ChEMBL document CHEMBL4385611, “Difluoromethylene at the γ-Lactam α-Position Improves 11-Deoxy-8-aza-PGE1 Series EP4 Receptor Binding and Activity: 11-Deoxy-10,10-difluoro-8-aza-PGE1 Analog (KMN-159) as a Potent EP4 Agonist” (J Med Chem, 2019); call rule not given here
pEC50, pIC50, pKi: −log10 of the molar value. ≈ marks a conversion by molar mass, not a printed value.

How the values were obtained:
[1] = Mutagenicity in Salmonella typhimurium TA1537 after 96 hrs in absence of rat liver S9 fraction by Ames test; assay type: toxicity; settings: salmonella enterica subsp. enterica serovar typhimurium, s9, 96 h
[2] = Efflux ratio of apparent permeability from basolateral to apical side over apical to basolateral side in human Caco2 cells at 5 uM after 120 mins by LC-MS/MS analysis; assay type: ADME, cell-based; settings: Caco-2
[3] = Genotoxicity in Salmonella typhimurium TA1537 at 0.6 to 100 uM after 96 hrs by photometry analysis; assay type: toxicity; settings: salmonella enterica subsp. enterica serovar typhimurium
[4] = Aqueous solubility of the compound in pH 7.4 phosphate-buffered saline at 200 uM after 24 hrs by shake-flask method; assay type: physicochemical
[5] = Intrinsic clearance in human liver microsomes at 0.1 uM by HPLC-MS/MS analysis; assay type: ADME, Microsome; settings: read-out: CLH
[6] = Half-life in human plasma at 1 uM by HPLC-MS/MS analysis; assay type: ADME, cell-free
[7] = biological target: T1, Prostaglandin E2 receptor EP2 subtype (Homo sapiens, UniProt P43116); assay: Agonist activity at human EP2 receptor expressed in HEK293T/17 cells assessed as increase in intracellular cAMP level incubated for 30 mins by ELISA; assay type: functional, cell-based
[8] = Apparent permeability across apical to basolateral side in human Caco2 cells at 5 uM after 120 mins by LC-MS/MS analysis; assay type: ADME, cell-based; settings: Caco-2
[9] = Genotoxicity in Salmonella typhimurium TA98 at 0.6 to 100 uM after 96 hrs by photometry analysis; assay type: toxicity; settings: salmonella enterica subsp. enterica serovar typhimurium
[10] = biological target: Voltage-gated inwardly rectifying potassium channel KCNH2 (Homo sapiens, UniProt Q12809); assay: Inhibition of human ERG expressed in CHOK1 cells assessed as reduction in tail current amplitude by automated patch-clamp method; assay type: cell-based
[11] = biological target: T2, Prostaglandin E2 receptor EP3 subtype (Homo sapiens, UniProt P43115); assay: Displacement of [3H]PGE2 from human recombinant EP3 receptor expressed in HEK293 cell membranes after 120 mins by liquid scintillation counting method
T2 sequence (P43115 whole entry): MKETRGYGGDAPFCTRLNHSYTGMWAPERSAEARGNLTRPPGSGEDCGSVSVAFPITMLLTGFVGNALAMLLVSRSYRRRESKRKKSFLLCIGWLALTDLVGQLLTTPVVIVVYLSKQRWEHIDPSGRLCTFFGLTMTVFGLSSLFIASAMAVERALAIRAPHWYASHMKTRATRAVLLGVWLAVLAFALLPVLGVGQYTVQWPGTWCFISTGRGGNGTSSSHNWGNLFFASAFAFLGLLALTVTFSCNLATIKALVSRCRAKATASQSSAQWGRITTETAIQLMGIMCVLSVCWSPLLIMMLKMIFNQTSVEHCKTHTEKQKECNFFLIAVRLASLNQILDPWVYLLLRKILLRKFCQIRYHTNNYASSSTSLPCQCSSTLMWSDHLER

Cytochrome P450 3A [12] = biological target: T3, Cytochrome P450 3A (Homo sapiens, UniProt P08684+P20815+Q9HB55+P24462); assay: Inhibition of CYP3A in human liver microsomes using testosterone as substrate at 10 uM after 10 mins by HPLC-MS/MS analysis; assay type: ADME
[13] = biological target: T1, Prostaglandin E2 receptor EP2 subtype; assay: Displacement of [3H]PGE2 from human recombinant EP2 receptor expressed in HEK293 cell membranes after 120 mins by liquid scintillation counting method
[14] = Half-life in human liver microsomes at 0.1 uM by HPLC-MS/MS analysis; assay type: ADME, Microsome
Cytochrome P450 2D6 = Cytochrome P450 2D6 (Homo sapiens, UniProt P10635); assay: Inhibition of CYP2D6 in human liver microsomes using dextromethorphan as substrate at 10 uM after 10 mins by HPLC-MS/MS analysis; assay type: ADME
Cytochrome P450 2C9 = Cytochrome P450 2C9 (Homo sapiens, UniProt P11712); assay: Inhibition of CYP2C9 in human liver microsomes using diclofenac as substrate at uM after 10 mins by HPLC-MS/MS analysis; assay type: ADME
[15] = Apparent permeability across basolateral to apical side in human Caco2 cells at 5 uM after 120 mins by LC-MS/MS analysis; assay type: ADME, cell-based; settings: Caco-2
Homo sapiens = species on record: Homo sapiens; assay: Selectivity ratio of Ki for displacement of [3H]PGE2 from human recombinant EP2 receptor expressed in HEK293 cell membranes to Ki for displacement of [3H]PGE2 from human recombinant EP4 receptor expressed in HEK293 cell membranes
[16] = Mutagenicity in Salmonella typhimurium TA98 after 96 hrs in presence of rat liver S9 fraction by Ames test; assay type: toxicity, subcellular; settings: salmonella enterica subsp. enterica serovar typhimurium, s9, 96 h
Cytochrome P450 2C8 = biological target: T4, Cytochrome P450 2C8 (Homo sapiens, UniProt P10632); assay: Inhibition of CYP2C8 in human liver microsomes using paclitaxel as substrate at 10 uM after 10 mins by HPLC-MS/MS analysis; assay type: ADME
T4 sequence (P10632 whole entry): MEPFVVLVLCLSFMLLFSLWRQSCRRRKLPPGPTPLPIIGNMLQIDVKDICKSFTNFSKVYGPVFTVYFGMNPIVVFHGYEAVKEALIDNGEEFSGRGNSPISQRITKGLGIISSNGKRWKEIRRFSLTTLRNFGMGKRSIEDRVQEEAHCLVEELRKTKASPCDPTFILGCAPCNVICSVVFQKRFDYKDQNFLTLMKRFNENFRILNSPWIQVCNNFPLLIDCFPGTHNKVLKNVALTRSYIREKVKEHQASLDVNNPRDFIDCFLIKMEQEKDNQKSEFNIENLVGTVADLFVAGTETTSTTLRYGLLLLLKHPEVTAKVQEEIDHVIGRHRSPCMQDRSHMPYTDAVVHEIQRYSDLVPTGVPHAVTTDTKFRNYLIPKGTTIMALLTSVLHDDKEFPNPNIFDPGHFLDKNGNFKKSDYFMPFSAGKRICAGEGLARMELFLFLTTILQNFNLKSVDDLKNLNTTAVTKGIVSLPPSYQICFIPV

[17] = Mutagenicity in Salmonella typhimurium TA100 after 96 hrs in absence of rat liver S9 fraction by Ames test; assay type: toxicity; settings: salmonella enterica subsp. enterica serovar typhimurium, s9, 96 h
[18] = Apparent permeability across apical to basolateral side in human Caco2 cells assessed as drug recovery at 5 uM after 120 mins by LC-MS/MS analysis; assay type: ADME, cell-based; settings: Caco-2, read-out: Drug recovery
Cytochrome P450 2C19 = Cytochrome P450 2C19 (Homo sapiens, UniProt P33261); assay: Inhibition of CYP2C19 in human liver microsomes using omeprazole as substrate at 10 uM after 10 mins by HPLC-MS/MS analysis; assay type: ADME
[19] = Genotoxicity in Salmonella typhimurium TA100 at 0.6 to 100 uM after 96 hrs by photometry analysis; assay type: toxicity; settings: salmonella enterica subsp. enterica serovar typhimurium
Cytochrome P450 3A [20] = biological target: T3, Cytochrome P450 3A; assay: Inhibition of CYP3A in human liver microsomes using midazolam as substrate at 10 uM after 10 mins by HPLC-MS/MS analysis; assay type: ADME
[21] = Half-life in human hepatocytes at 0.1 uM by HPLC-MS/MS analysis; assay type: ADME, cell-based, Hepatocyte

T1 sequence (P43116 whole entry): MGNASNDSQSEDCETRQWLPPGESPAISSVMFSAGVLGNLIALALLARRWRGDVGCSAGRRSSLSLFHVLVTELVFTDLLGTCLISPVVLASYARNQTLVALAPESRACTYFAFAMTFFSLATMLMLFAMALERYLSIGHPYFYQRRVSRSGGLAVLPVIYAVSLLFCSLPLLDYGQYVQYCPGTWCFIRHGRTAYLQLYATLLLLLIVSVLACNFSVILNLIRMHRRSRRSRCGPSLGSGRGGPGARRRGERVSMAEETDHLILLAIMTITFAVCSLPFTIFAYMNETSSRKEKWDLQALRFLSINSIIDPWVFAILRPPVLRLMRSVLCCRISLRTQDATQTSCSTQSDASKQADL
Chain of Cytochrome P450 2C19 (P33261 whole entry): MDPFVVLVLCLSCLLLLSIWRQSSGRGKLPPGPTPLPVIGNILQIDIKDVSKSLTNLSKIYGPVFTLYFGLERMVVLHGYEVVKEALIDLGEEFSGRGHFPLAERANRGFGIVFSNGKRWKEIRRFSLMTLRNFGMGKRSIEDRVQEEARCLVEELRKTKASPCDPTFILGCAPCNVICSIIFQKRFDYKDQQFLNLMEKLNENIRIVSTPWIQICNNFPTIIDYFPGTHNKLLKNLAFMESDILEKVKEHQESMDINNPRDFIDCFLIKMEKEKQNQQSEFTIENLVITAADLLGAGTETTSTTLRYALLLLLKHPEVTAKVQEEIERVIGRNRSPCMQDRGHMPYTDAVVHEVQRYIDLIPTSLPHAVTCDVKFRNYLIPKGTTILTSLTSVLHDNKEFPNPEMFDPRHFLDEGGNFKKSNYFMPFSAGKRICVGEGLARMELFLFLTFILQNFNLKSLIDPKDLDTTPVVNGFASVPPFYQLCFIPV
Chain of Cytochrome P450 2C9 (P11712 whole entry): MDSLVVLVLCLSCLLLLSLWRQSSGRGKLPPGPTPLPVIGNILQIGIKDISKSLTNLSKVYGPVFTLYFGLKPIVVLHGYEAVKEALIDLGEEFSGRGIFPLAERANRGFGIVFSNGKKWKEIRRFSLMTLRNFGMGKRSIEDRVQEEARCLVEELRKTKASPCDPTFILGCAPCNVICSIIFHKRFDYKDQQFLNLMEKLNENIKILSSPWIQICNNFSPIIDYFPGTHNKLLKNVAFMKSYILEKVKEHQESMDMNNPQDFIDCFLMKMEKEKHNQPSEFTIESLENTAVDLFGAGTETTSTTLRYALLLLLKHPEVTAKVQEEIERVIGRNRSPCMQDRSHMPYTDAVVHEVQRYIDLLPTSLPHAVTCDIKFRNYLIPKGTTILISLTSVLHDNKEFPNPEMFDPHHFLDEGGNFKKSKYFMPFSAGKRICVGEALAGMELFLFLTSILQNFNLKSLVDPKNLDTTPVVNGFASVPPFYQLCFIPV
Chain of Voltage-gated inwardly rectifying potassium channel KCNH2 (Q12809 whole entry): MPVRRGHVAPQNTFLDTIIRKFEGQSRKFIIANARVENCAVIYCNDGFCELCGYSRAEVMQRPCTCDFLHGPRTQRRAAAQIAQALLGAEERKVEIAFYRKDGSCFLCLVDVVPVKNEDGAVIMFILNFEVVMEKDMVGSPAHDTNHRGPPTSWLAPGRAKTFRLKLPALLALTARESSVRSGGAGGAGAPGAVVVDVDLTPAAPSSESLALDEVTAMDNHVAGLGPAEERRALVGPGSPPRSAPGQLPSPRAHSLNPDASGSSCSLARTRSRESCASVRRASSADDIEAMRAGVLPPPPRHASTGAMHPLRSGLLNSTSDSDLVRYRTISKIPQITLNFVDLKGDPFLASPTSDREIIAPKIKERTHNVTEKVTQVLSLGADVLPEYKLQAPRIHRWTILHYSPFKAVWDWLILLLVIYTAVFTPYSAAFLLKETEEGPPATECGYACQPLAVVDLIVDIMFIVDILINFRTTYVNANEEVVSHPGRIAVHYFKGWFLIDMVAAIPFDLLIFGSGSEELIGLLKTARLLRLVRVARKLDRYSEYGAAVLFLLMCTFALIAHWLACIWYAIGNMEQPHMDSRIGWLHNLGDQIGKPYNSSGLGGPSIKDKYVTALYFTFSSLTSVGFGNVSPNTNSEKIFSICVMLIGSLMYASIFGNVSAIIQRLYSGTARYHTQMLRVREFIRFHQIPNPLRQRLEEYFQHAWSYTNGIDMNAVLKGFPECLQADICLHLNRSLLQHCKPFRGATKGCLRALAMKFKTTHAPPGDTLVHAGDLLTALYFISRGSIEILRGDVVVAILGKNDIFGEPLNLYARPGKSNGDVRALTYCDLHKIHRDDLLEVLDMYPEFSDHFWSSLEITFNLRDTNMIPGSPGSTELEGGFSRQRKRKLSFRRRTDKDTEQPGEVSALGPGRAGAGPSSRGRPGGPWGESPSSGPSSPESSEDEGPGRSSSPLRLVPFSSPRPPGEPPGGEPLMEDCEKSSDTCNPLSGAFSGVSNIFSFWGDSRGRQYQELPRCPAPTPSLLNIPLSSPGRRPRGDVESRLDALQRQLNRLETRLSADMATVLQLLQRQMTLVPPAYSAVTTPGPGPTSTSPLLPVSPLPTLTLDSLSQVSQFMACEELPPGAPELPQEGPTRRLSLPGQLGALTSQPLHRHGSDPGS
Chain of Cytochrome P450 2D6 (P10635 whole entry): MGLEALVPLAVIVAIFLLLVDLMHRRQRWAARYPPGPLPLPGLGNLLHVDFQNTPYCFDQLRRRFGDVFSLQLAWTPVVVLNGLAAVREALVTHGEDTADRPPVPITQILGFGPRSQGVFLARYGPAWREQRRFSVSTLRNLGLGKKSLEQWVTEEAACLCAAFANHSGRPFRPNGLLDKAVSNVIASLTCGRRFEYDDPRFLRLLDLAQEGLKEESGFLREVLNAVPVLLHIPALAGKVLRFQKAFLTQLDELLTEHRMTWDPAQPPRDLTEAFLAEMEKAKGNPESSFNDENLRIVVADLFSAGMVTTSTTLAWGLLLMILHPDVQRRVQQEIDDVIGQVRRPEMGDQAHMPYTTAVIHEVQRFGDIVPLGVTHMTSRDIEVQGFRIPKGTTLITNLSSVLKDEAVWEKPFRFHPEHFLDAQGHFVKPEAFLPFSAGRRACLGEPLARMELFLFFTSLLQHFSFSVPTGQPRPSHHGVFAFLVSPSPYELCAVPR

| Compound | Activity [1] | efflux ratio at 2 h, 5 µM [2] | Activity [3] | solubility thermodynamic at 24 h, 200 µM [4] | microsomal CLint at 0.1 µM [5] | half-life at 1 µM [6] | pEC50 [7] | Papp A→B at 2 h, 5 µM [8] | Activity [9] | pIC50 [10] | pKi [11] | inhibition (INH) (Cytochrome P450 3A [12]) | pKi [13] | half-life at 0.1 µM [14] | inhibition (INH) (Cytochrome P450 2D6) | inhibition (INH) (Cytochrome P450 2C9) | Papp B→A at 2 h, 5 µM [15] | Ratio Ki (Homo sapiens) | Activity [16] | inhibition (INH) (Cytochrome P450 2C8) | further results |
| --- | --- | --- | --- | --- | --- | --- | --- | --- | --- | --- | --- | --- | --- | --- | --- | --- | --- | --- | --- | --- | --- |
| CCC#CC[C@H](C)[C@H](O)/C=C/[C@H]1CCC(=O)N1CCCCCCC(=O)O | Non-Toxic | 1.6 | Non-Toxic | 192 µM (≈ 69.9 µg/mL) | < 116 µL/min/mg | 1.93 h | < 5.00 | 63.8 nm/s | Non-Toxic | 4.54 | 6.06 | Not Active | 4.91 | > 1 h | Not Active | Not Active | 101 nm/s | > 5000 | Non-Toxic | Not Active | Activity [17]: Non-Toxic; recovery at 2 h, 5 µM [18]: 103%; inhibition (INH) (Cytochrome P450 2C19): Not Active; Activity [19]: Non-Toxic; inhibition (INH) (Cytochrome P450 3A [20]): Not Active; half-life at 0.1 µM [21]: > 2 h |
| CCC#CC[C@H](C)[C@H](O)/C=C/[C@H]1CC(F)(F)C(=O)N1CCCCCCC(=O)O | Non-Toxic | 1.5 | Non-Toxic | 197 µM (≈ 78.7 µg/mL) | < 116 µL/min/mg | > 2 h | < 5.00 | 99.3 nm/s | Non-Toxic | 4.59 | 6.59 | Not Active | 5.30 | > 1 h | Not Active | Not Active | 145 nm/s | > 5000 | Non-Toxic | Not Active | Activity [17]: Non-Toxic; recovery at 2 h, 5 µM [18]: 94%; inhibition (INH) (Cytochrome P450 2C19): Not Active; Activity [19]: Non-Toxic; inhibition (INH) (Cytochrome P450 3A [20]): Not Active; half-life at 0.1 µM [21]: > 2 h |
